Laboratory results: US10017453B2, “Pharmaceutically acceptable salts of fatty acids” (Dignity Sciences Limited, priority 2013, dated 2018)
Converted amounts (≈) assume the structure as drawn.

Tests used:
[1] = Storage stability up to 24 weeks, free acid versus lysine salt (FIG. 28); format: physicochemical
Procedure: The 15-HETrE-lysine salt is stable at 20° C. and 40% humidity as well as at 40° C. and 75% humidity, making the lysine salt useful for pharmaceutical applications. 15-HETrE lysine salt was prepared on a larger scale for the crystallization screen as a white powder.

[2] = Degradation of 15-(S)-HETrE on exposure to isopropyl acetate (overnight, UPLC); format: physicochemical
Procedure: An experiment was conducted to examine whether any degradation would be observed upon exposure of 15-(S)-HETrE to isopropyl acetate. 15-(S)-HETrE (100 mg) was dissolved in isopropyl acetate (1 mL) and stirred overnight. This was sampled directly for UPLC analysis (Table 39).

[3] = Solubility screen of as-received 15-HETrE (aliquot addition method); format: physicochemical; details: for solubility: organic solvent or mixture, estimated, read-out: Solubility Range
Excerpt: This is believed to be due to degradation of 15-HETrE, therefore HFIPA was not used in any further studies of 15-HETrE.

[4] = 8 Day Stability 40/75% RH of solids from the salt/cocrystal screen; format: physicochemical; details: 8 days
[5] = Dynamic vapor sorption (DVS) analysis; format: physicochemical; details: for Hygroscopicity according to the European Pharmacopeia classification: DVS
Excerpt: Post DVS XRPD analysis was not conducted as the material deliquesced.

[6] = Qualitative solubility observations of the salts; format: physicochemical
Procedure: An alternative method to prepare 15-HETrE sodium salt by slurrying and avoid need for rotary evaporation could not be found. […] Scale up and characterization was completed for 15-HETrE sodium salt using rotary evaporation from 10% aqueous EtOH, then EtOH. […] Purity as measured by UPLC analysis was ˜81%.
Products of each of the Reactions were white in appearance. Filtration was carried out with a sintered funnel (no. 3, 10 mm diameter) under mild vacuum. Some filter cake products were yellow in appearance. The first ˜200 μL of filtrate were transferred into an HPLC vial. Filtration of the remaining reaction mixture (alternating between high and medium vacuum) yielded a filter cake that was transferred to a vacuum chamber and dried overnight before being stored in a freezer.

[7] = Chemical stability at ambient temperature under vacuum for 8 days; format: physicochemical
Excerpt: Twenty four co-formers and acids were used to screen for stable forms of 15-HETrE but most yielded oils or gels. Salts with improved handling properties were isolated from the screen: sodium, ornithine, lysine, meglumine and piperazine, but all were poorly crystalline.
Properties of 15-HETrE salts prepared according to Examples 4-7 were compared against each other and against 15-HETrE free acid API.

[8] = Reslurry of 15-(S)-HETrE lysine salt in ethyl acetate (impurity profile, NMR ratio); format: physicochemical
Procedure: An experiment was conducted to determine if the ratio of 15-(S)-HETrE to lysine would change after exposure to ethyl acetate. 15-(S)-HETrE lysine salt (100 mg) was suspended in HPLC grade ethyl acetate (1 mL) and stirred vigorously overnight at room temperature. The suspension was then filtered as described in previous examples. The impurity profiles of the starting 15-(S)-HETrE lysine salt (“before slurry”) and the slurried, filtered salt (“after reslurry”) are shown in Table 25.
NMR spectroscopy confirmed no change in the ratio of 15-(S)-HETrE-to-lysine ratio.

[9] = Solvent-induced degradation of 15-(S)-HETrE lysine salt (ethyl acetate or methanol, overnight, UPLC); format: physicochemical
Procedure: An experiment to determine the degradation of 15-(S)-HETrE lysine salt, if any, when contacted with ethyl acetate or methanol. 15-(S)-HETrE lysine salt (100 mg) was dissolved in solvent (1 mL) and stirred overnight.

[10] = ambient temperature; probably due to uptake of moisture
[11] = before exposure to isopropyl acetate
[12] = in isopropyl acetate, stirred overnight
[13] = after reslurry in ethyl acetate, overnight, room temperature
[14] = in ethyl acetate, stirred overnight
[15] = original salt, before solvent contact

SMILES: CCCCCC(O)/C=C/C=C\C/C=C\CCCCCCC(=O)O (stereo not shown) [15-HETrE, 15-Hydroxy-eicosa-8(Z),11(Z),13(E)-trienoic acid]
- Storage stability ([1]; stored up to 24 weeks at −20° C., 2-8° C., 25° C.): unstable and degrades at all conditions with the exception of −20 °C
- HETrE (RRT 1) peak area [2, 11]: 91.38%
- IMP 1 (RRT 0.62) peak area [2, 11]: 0.12%
- IMP 2 (RRT 0.64) peak area [2, 11]: 0.51%
- IMP 3 (RRT 0.66) peak area [2, 11]: 0.89%
- IMP 4 (RRT 0.69) peak area [2, 11]: 0.13%
- IMP 5 (RRT 0.72) peak area [2, 11]: 1.29%
- IMP 6 (RRT 0.85) peak area [2, 11]: 0.16%
- IMP 7 (RRT 0.91) peak area [2, 11]: 1.17%
- IMP 8 (RRT 0.98) peak area [2, 11]: 0.29%
- IMP 9 (RRT 1.03) peak area [2, 11]: 0.18%
- IMP 10 (RRT 1.1) peak area [2, 11]: 1.41%
- IMP 11 (RRT 1.75) peak area [2, 11]: 0.88%
- HETrE (RRT 1) peak area [2, 12]: 85.56%
- IMP 1 (RRT 0.62) peak area [2, 12]: 0.22%
- IMP 2 (RRT 0.64) peak area [2, 12]: 1.48%
- IMP 3 (RRT 0.66) peak area [2, 12]: 1.47%
- IMP 4 (RRT 0.69) peak area [2, 12]: 0.19%
- IMP 5 (RRT 0.72) peak area [2, 12]: 3.02%
- IMP 6 (RRT 0.85) peak area [2, 12]: 0.43%
- IMP 7 (RRT 0.91) peak area [2, 12]: 1.56%
- IMP 8 (RRT 0.98) peak area [2, 12]: 0.62%
- IMP 9 (RRT 1.03) peak area [2, 12]: 0.28%
- IMP 10 (RRT 1.1) peak area [2, 12]: 1.79%
- IMP 11 (RRT 1.75) peak area [2, 12]: 1.14%
- Stability when combined with HFIPA ([3]; 1,1,1,3,3,3-hexafluoroisopropyl acrylate (HFIPA), believed to be degradation): rapid color change from clear, colorless to blood red to deep purple/black
- solubility ([3]; Acetone): 3120 to 9360 µg/mL (≈ 9.67 to 29 mM)
- solubility ([3]; Acetonitrile (ACN)): 930 to 2780 µg/mL (≈ 2.88 to 8.62 mM)
- solubility ([3]; DCM): 1170 to 3520 µg/mL (≈ 3.63 to 10.9 mM)
- solubility ([3]; DMF): 1230 to 3680 µg/mL (≈ 3.81 to 11.4 mM)
- solubility ([3]; Dioxane): 1660 to 4980 µg/mL (≈ 5.15 to 15.4 mM)
- solubility ([3]; Ethanol (EtOH)): 1260 to 3780 µg/mL (≈ 3.91 to 11.7 mM)
- solubility ([3]; Ethyl acetate (EtOAc)): 1890 to 5660 µg/mL (≈ 5.86 to 17.6 mM)
- solubility ([3]; Methanol (MeOH)): 2120 to 6360 µg/mL (≈ 6.57 to 19.7 mM)
- solubility ([3]; THF): 3320 to 9960 µg/mL (≈ 10.3 to 30.9 mM)
- Miscibility in solvents ([3]; ten solvents tested): miscible in all solvents tested

SMILES: CCCCCC(O)/C=C/C=C\C/C=C\CCCCCCC(=O)O.NCCCC[C@H](N)C(=O)O (stereo not shown) [15-HETrE lysine salt, 15-Hydroxy-eicosa-8(Z),11(Z),13(E)-trienoic acid lysine salt]
- 8 Day Stability 40/75% RH [4]: 97% purity
- Hygroscopicity according to the European Pharmacopeia classification [5]: hygroscopic
- DVS behaviour ([5]; above 80% RH): deliquesced
- DVS weight gain ([5]; below 70% RH): less than 1%
- DVS additional weight gain ([5]; between 70-80% RH): 1%
- Storage stability ([1]; 20° C. and 40% humidity): stable
- Storage stability ([1]; 40° C. and 75% humidity): stable
- solubility ([6]; DMSO): insoluble
- solubility ([6]; chloroform): insoluble
- solubility ([6]; water): dissolves readily
- Chemical stability [7]: chemically stable
- HETrE (RRT 1) in impurity profile [8, 13]: 95.69
- IMP 1 (RRT 0.62) in impurity profile [8, 13]: 0.16
- IMP 2 (RRT 0.64) in impurity profile [8, 13]: 0.39
- IMP 3 (RRT 0.69) in impurity profile [8, 13]: 0.16
- IMP 4 (RRT 0.91) in impurity profile [8, 13]: 1.08
- IMP 5 (RRT 1.03) in impurity profile [8, 13]: 0.07
- IMP 6 (RRT 1.1) in impurity profile [8, 13]: 1.47
- IMP 7 (RRT 1.75) in impurity profile [8, 13]: 0.11
- HETrE (RRT 1) in impurity profile ([8]; before reslurry): 96.66
- IMP 1 (RRT 0.62) in impurity profile ([8]; before reslurry): 0.04
- IMP 2 (RRT 0.64) in impurity profile ([8]; before reslurry): 0.09
- IMP 3 (RRT 0.69) in impurity profile ([8]; before reslurry): 0.11
- IMP 4 (RRT 0.91) in impurity profile ([8]; before reslurry): 1.01
- IMP 5 (RRT 1.03) in impurity profile ([8]; before reslurry): 0.15
- IMP 6 (RRT 1.1) in impurity profile ([8]; before reslurry): 1.39
- IMP 7 (RRT 1.75) in impurity profile ([8]; before reslurry): 0.26
- Change in 15-(S)-HETrE-to-lysine ratio after reslurry ([8]; ethyl acetate, overnight, room temperature, NMR): no change
- HETrE (RRT 1) peak area [9, 14]: 94.20%
- IMP 1 (RRT 0.62) peak area [9, 14]: 0.05%
- IMP 2 (RRT 0.64) peak area [9, 14]: 0.86%
- IMP 3 (RRT 0.69) peak area [9, 14]: 0.96%
- IMP 4 (RRT 0.91) peak area [9, 14]: 1.30%
- IMP 5 (RRT 1.03) peak area [9, 14]: 0.29%
- IMP 6 (RRT 1.1) peak area [9, 14]: 1.35%
- IMP 7 (RRT 1.75) peak area [9, 14]: 0.14%
- HETrE (RRT 1) peak area ([9]; in methanol, stirred overnight): 95.40%
- IMP 1 (RRT 0.62) peak area ([9]; in methanol, stirred overnight): 0.03%
- IMP 2 (RRT 0.64) peak area ([9]; in methanol, stirred overnight): 0.24%
- IMP 3 (RRT 0.69) peak area ([9]; in methanol, stirred overnight): 0.45%
- IMP 4 (RRT 0.91) peak area ([9]; in methanol, stirred overnight): 1.16%
- IMP 5 (RRT 1.03) peak area ([9]; in methanol, stirred overnight): 0.13%
- IMP 6 (RRT 1.1) peak area ([9]; in methanol, stirred overnight): 1.34%
- IMP 7 (RRT 1.75) peak area ([9]; in methanol, stirred overnight): 0.31%
- HETrE (RRT 1) peak area [9, 15]: 95.67%
- IMP 1 (RRT 0.62) peak area [9, 15]: 0.20%
- IMP 2 (RRT 0.64) peak area [9, 15]: 0.12%
- IMP 3 (RRT 0.69) peak area [9, 15]: 0.27%
- IMP 4 (RRT 0.91) peak area [9, 15]: 1.30%
- IMP 5 (RRT 1.03) peak area [9, 15]: 0%
- IMP 6 (RRT 1.1) peak area [9, 15]: 1.44%
- IMP 7 (RRT 1.75) peak area [9, 15]: 0.55%

SMILES: C1CNCCN1.CCCCCC(O)/C=C/C=C\C/C=C\CCCCCCC(=O)O (stereo not shown) [15-HETrE piperazine salt, 15-Hydroxy-eicosa-8(Z),11(Z),13(E)-trienoic acid piperazine salt]
- Behaviour on exposure to air [10]: appears to flow on exposure to air at ambient temperature

SMILES: CCCCCC(O)/C=C/C=C\C/C=C\CCCCCCC(=O)[O-].[Na+] (stereo not shown) [15-HETrE sodium salt, 15-Hydroxy-eicosa-8(Z),11(Z),13(E)-trienoic acid sodium salt]
- 8 Day Stability 40/75% RH [4]: 95% purity
- Hygroscopicity according to the European Pharmacopeia classification [5]: very hygroscopic
- DVS weight gain ([5]; below 40% RH): less than 1%
- DVS behaviour ([5]; high RH): deliquesced
- solubility ([6]; water used in the slurry preparation, salt did not precipitate): highly soluble
